{"source": "patent US20190071670A1", "about": "“Methods Of Treatment For Alpha-1 Antitrypsin Deficiency” (Arrowhead Pharmaceuticals, Inc., priority 2016, published 2019)", "key": {"[1]": {"tested_on": "Z-AAT", "settings": "PiZ mouse model of AATD, cited from earlier work"}, "[2]": {"tested_on": "hAAT", "test": "Serum hAAT protein levels in PiZ mice (ELISA)", "type": "in vivo, human (expressed in PiZ mice)", "settings": "for Serum hAAT normalized to day 1: PiZ mice, single IV 6 mg/kg with 6 mg/kg MLP delivery polymer; for Serum hAAT normalized to day 1 and controls: female PiZ mice, single IV 8 mg/kg + 8 mg/kg MLP delivery polymer, mice euthanized Day 29", "experimental": "(§1) Human AAT protein levels in serum were monitored for 29 days. At the indicated times, blood samples were collected and assayed for hAAT by ELISA. Day 1 samples were collected prior to trigger administration. For mRNA analysis, 3-4 mice were euthanized at each of days 3, 8, 15, 22, and 29. For euthanized mice, cardiac stick were performed for serum isolation for AAT ELISA (200 μl serum). Half of the left lateral liver lobe was collected and snap-freeze in liquid nitrogen for RNA isolation. The remainder of the left lobes were embedded into paraffin blocks for PAS-D staining with hematoxylin as counter-stain. Serum hAAT levels in mice given AAT Duplex Pair SEQ ID NO: 5/6 were 95% reduced on day 8 and remained reduced to day 29, at which time they were 79% reduced. Mice given AAT Duplex Pair SEQ ID NO: 5/6 were euthanized at either day 3, 8, 15, 22 or 29. Mice given saline or Luciferase siRNA control (SEQ ID 7/8) were euthanized on day 29. Levels of hAAT mRNA in the livers were measured by RT-qPCR. The hAAT mRNA in mice given AAT Duplex Pair SEQ ID NO: 5/6 was reduced by 97% on day 3 and remained reduced on day 29, at which time levels were 56% reduced. The size of the globules and the area of the liver covered by globules was digitally quantitated from liver specimens stained with PAS-D. Duplex Pair SEQ ID NO: 5/6 treated mice had 70% smaller globules at day 15 and 62% smaller globules at day 29. The area of the liver covered with globules was 83% reduced on day 15 and 72% reduced on day 29 (FIG. 5)."}, "[3]": {"tested_on": "hAAT mRNA", "test": "Liver hAAT mRNA levels in PiZ mice (RT-qPCR)", "type": "in vivo, human (expressed in PiZ mice)", "settings": "PiZ mice liver", "experimental": "Compositions comprising double-stranded AAT expression-inhibiting oligomeric compounds were administered to PiZ mice. PiZ mice harbor the human PiZ AAT mutant allele and model human AATD (Carlson et al. Journal of Clinical Investigation 1989). […] Liver hAAT mRNA production was measured at days 3 and 10. Reduced mRNA levels correlated with decreased serum hAAT protein levels, except that mRNA reduction preceded protein reduction by a few days. The level of liver hAAT mRNA production was measured at day 3 and day 10 following a single dose of AAT RNAi agent with MLP delivery polymer in PiZ mice. A sustained decrease in liver hAAT mRNA levels was observed that correlated with the decrease observed in serum hAAT protein levels.\nas §1"}}, "note": "Strand notation (5' to 3'): a small letter for the sugar, then the base; units joined by * are phosphorothioate-linked, units joined directly phosphodiester-linked; [ ] holds rarer units or linkages, { } end groups; capitals alone tell only the bases. {Chol-TEG} = cholesterol-triethylene glycol conjugate; [UNA-N] = unlocked nucleic acid (N: the base); [invdT] = inverted (3'-3') thymidine; d = 2'-deoxy (DNA); m = 2'-O-methyl; r = 2'-OH (RNA); f = 2'-fluoro"}
{"compound": "NC(=O)N1c2ccccc2C=Cc2ccccc21", "note": "[carbamazepine]", "values": [{"measurement": "Z-AAT globules in hepatocytes and hepatic fibrosis", "setting": "[1]", "value": "mediate a reduction in Z-AAT globules in hepatocytes and ameliorated hepatic fibrosis"}]}
{"compound": "OCCN1CCN(CCCN2c3ccccc3Sc3ccc(C(F)(F)F)cc32)CC1", "note": "[fluphenazine]", "values": [{"measurement": "Z-AAT globules in hepatocytes and hepatic fibrosis", "setting": "[1]", "value": "mediate a reduction in Z-AAT globules in hepatocytes and ameliorated hepatic fibrosis"}]}
{"compound": "C[C@H](CC(=O)O)[C@H]1CC[C@H]2[C@@H]3[C@@H](O)C[C@@H]4C[C@H](O)CC[C@]4(C)[C@H]3CC[C@]12C", "note": "[nor-UDCA, nor-ursodeoxycholic acid]", "values": [{"measurement": "apoptotic signaling and accumulation of mutant Z-AAT in hepatocytes", "setting": "[1]; associated with an increase in hepatic autophagy", "value": "reduced apoptotic signaling and reduced accumulation of mutant Z-AAT in hepatocytes"}]}
{"compound": "Luciferase siRNA control: Luciferase double-stranded siRNA control, SEQ ID NO: 7 and Chol-TEG SEQ ID NO: 8 (chain 1 dTfCmGfAmAfG[UNA-U]fAmCfUmCfAmGfCmGfUmAfAmGdT*dT; chain 2 {Chol-TEG}-mUrAmUfCmUfUmAfCmGfCmUfGmAfGmUfAmCfUmUfCmGfA[invdT]) [reference compound]", "values": [{"measurement": "Serum hAAT normalized to day 1", "setting": "[2]; day 1 (reference)", "value": 1.00}, {"measurement": "Serum hAAT normalized to day 1", "setting": "[2]; day 3", "value": "1.110 ± 0.147"}, {"measurement": "Serum hAAT normalized to day 1", "setting": "[2]; day −2 (pre-dose)", "value": "0.766 ± 0.219"}, {"measurement": "Serum hAAT normalized to day 1 and controls", "setting": "[2]; Day 1", "value": 1.000}, {"measurement": "Serum hAAT normalized to day 1 and controls", "setting": "[2]; Day 3", "value": "0.994 ± 0.153"}, {"measurement": "Serum hAAT normalized to day 1 and controls", "setting": "[2]; Day 8", "value": "1.090 ± 0.092"}, {"measurement": "Serum hAAT normalized to day 1 and controls", "setting": "[2]; Day 15", "value": "0.890 ± 0.080"}, {"measurement": "Serum hAAT normalized to day 1 and controls", "setting": "[2]; Day 22", "value": "1.171 ± 0.095"}, {"measurement": "Serum hAAT normalized to day 1 and controls", "setting": "[2]; Day 29", "value": "0.797 ± 0.074"}, {"measurement": "Serum hAAT normalized to day 1 and controls", "setting": "[2]; Day −2", "value": "1.268 ± 0.143"}, {"measurement": "Average relative mRNA level (hAAT)", "setting": "[3]; one injection 8 mg/kg + 8 mg/kg MLP delivery polymer, Day 29", "value": 1.031}, {"measurement": "hAAT mRNA level", "setting": "[3]; single IV 6 mg/kg with 6 mg/kg MLP delivery polymer, relative to mouse β-actin mRNA, day 3", "value": "1.06 ± 0.20"}]}
